According to patent publication US10100056B2, “SHIP1 modulators and methods related thereto” (Aquinox Pharmaceuticals (Canada) Inc., priority 2013, dated 2018):

molecular target: T1, His-hSHIP1 enzyme (Homo sapiens, UniProt Q92835); assay: His-hSHIP1 activity (phosphatase assay, IP4 substrate, Biomol Green); format: biochemical; parameters: key to Scoring, Approach 2 (Initial velocity Ratio): +++: higher than reference or reference - 15%; ++: reference - 16% to reference - 30%; +: reference - 31% or lower; −: inhibitor; conditions: second approach: ratio of initial velocities IP4 25/250 μM compared with reference compound; values without asterisk
T1 construct: His
T1 sequence (Q92835 1-1189): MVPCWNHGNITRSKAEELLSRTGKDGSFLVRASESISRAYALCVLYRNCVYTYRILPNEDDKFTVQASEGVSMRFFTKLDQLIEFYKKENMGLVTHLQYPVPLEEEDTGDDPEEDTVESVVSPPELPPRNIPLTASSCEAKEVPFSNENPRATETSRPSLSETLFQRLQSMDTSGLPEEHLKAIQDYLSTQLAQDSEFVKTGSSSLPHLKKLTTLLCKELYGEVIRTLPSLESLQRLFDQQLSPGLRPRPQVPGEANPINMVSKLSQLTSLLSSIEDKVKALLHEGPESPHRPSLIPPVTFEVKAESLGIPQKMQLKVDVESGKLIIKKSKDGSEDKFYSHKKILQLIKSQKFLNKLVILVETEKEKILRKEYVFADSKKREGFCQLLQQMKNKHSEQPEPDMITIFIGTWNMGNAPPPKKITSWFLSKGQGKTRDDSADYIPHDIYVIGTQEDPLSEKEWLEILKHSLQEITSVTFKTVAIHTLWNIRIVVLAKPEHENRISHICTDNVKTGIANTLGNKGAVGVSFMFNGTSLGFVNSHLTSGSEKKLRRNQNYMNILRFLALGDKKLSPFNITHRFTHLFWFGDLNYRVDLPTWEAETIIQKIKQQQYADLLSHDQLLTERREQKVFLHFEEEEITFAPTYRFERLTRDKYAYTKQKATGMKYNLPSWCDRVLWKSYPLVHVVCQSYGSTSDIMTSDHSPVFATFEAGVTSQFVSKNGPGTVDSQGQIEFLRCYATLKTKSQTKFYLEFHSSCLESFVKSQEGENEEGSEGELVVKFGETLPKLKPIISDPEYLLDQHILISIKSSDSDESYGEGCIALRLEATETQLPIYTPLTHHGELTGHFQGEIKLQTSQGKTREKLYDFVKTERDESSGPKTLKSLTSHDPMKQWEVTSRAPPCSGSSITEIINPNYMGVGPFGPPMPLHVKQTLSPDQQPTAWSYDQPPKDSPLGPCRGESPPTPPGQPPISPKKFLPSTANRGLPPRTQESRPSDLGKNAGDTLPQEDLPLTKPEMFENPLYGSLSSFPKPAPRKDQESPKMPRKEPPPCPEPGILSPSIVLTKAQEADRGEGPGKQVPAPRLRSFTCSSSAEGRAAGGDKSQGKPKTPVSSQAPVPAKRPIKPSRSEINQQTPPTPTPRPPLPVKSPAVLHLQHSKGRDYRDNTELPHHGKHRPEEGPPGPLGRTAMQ
Method: Test compounds are dissolved in 95% ethanol to form stock solutions. Before screening, the stock solutions are diluted with Phosphatase Assay Buffer (20 mM Tris-HCL, 10 mM MgCl2 pH 7.5, 0.02% Tween 20) to form working assay solutions that contain 10% ethanol. The assay is carried out on 96-well microtiter plates using a modified procedure of that reported by Ong et al., Blood 110, 1942-1949, 2007 and Yang et al., Org Lett 7, 1073-1076, 2005, both of which references are incorporated herein by reference in their entirety.
Data were generated by one of two variant methods. Test compounds are screened by one of two approaches described as follows. In the first approach, each reaction contains 5 μL of His-hSHIP1 enzyme (5-20 ng), 10 μL of the substrate, 1,3,4,5-inositol tetrakisphosphate (IP4; 50 μM final), 5 μL of Phosphatase Assay Buffer, and 5 µL of test compound at various concentrations in 10% ethanol (0-300 μM final). Control blanks are also prepared by replacing His-hSHIP1 enzyme, IP4, or test compounds with Phosphatase Assay Buffer. After adding the reaction components in a 96-well microtiter plate on ice, the reaction is mixed by briefly shaking the plate vigorously. The reaction is then incubated at 37° C. for 15 min with gentle shaking followed by addition of 100 μL of Biomol Green Reagent (BIOMOL, PA, USA) to terminate the reaction. The free phosphate released from IP4 by His-hSHIP1 binds to the Biomol Green Reagent, which turns the dye to green color. After incubating the mixture for 20 min at room temperature for color development, the absorbance is read with SpectraMax Plus 96-well plate reader (Molecular Devices, Sunnyvale, Calif., USA) at a wavelength of 650 nm.
In the second approach, a master mix is prepared that contains 50 μL of His-hSHIP1 enzyme (0.4-1.6 ng/μL final), 25 μL of the substrate, IP4 (25 or 250 μM final), and 50 μL of test compound in 3.3% ethanol (100 μL final). Control blanks are also prepared by replacing His-hSHIP1 enzyme, IP4, or test compounds with Phosphate Assay Buffer. […] Each reaction component is preincubated at 37° C. for 30 min before adding to a 96-well microtiter plate. The master mix is then incubated at 37° C. At time 0, 20, and 30 min, 25 μL of the master mix is removed and transferred to a new 96-well microtiter plate, to which 100 μL of Biomol Green Reagent is added to stop the reaction. After incubating the mixture for 20 min at room temperature for color development, the absorbance is read with SpectraMax Plus 96-well plate reader at a wavelength of 650 nm. Phosphate released is plotted against time to calculate the initial velocities (i.e., slope of the graph) at each IP4 concentration. The initial velocities are baseline corrected and the ratio of initial velocities (IP425/IP4250) is calculated and used to rate the test compounds.

| Compound | Scoring, Approach 2 (Initial velocity Ratio) |
| --- | --- |
| CC1(C)CCC2=C1CC[C@H]([C@@]1(C)CC[C@H](O)C[C@@H]1CO)[C@H]2CNCC1CC1 [Cpd. No. 2, (1S,3S,4R)-4-((4R,5S)-4-((cyclopropylmethylamino)methyl)-1,1-dimethyl-2,3,4,5,6,7-hexahydro-1H-inden-5-yl)-3-(hydroxymethyl)-4-methylcyclohexanol] | + |
| CC(=O)NC[C@H]1C2=C(CC[C@@H]1[C@@]1(C)CC[C@H](O)C[C@@H]1CO)C(C)(C)CC2 [Cpd. No. 4, N-(((4R,5S)-5-((1R,2S,4S)-4-hydroxy-2-(hydroxymethyl)-1-methylcyclohexyl)-1,1-dimethyl-2,3,4,5,6,7-hexahydro-1H-inden-4-yl)methyl)acetamide] | + |
| CNC[C@H]1C2=C(CC[C@@H]1[C@@]1(C)CC[C@H](O)C[C@@H]1CO)C(C)(C)CC2 [Cpd. No. 5, (1S,3S,4R)-4-((4R,5S)-1,1-dimethyl-4-((methylamino)methyl)-2,3,4,5,6,7-hexahydro-1H-inden-5-yl)-3-(hydroxymethyl)-4-methylcyclohexanol] | +++ |

test system: Akt phosphorylation in Molt-4 (PTEN-/SHIP1+) cells; assay: Akt phosphorylation in lymphocytes (Western blot, IGF-1 stimulated); format: cell-based; parameters: key: +: inhibits Akt phosphorylation at 30 μM; −: no effect on Akt phosphorylation at 30 μM; conditions: 30 μM; Molt-4 (SHIP1+) cells, IGF-1 100 ng/mL
Method: Molt-4 (PTEN-/SHIP1+) cells are starved in serum free RPMI for overnight. In a 15 mL conical tube, 2-3 million serum starved cells (1 million cells per mL) are treated with various concentrations of test compound ([…]) for 30 min at 37° C. followed by stimulation with 100 ng/mL of IGF-1 for 1 hour at 37° C. After stimulation, cells are washed once with ice-cold DPBS and lysed with Lysis Buffer (20 mM Tris-HCl, pH 7.5, 140 mM NaCl, 1% NP-40, Complete Mini Protease Inhibitor Cocktail, 10 mM NaF, 1 mM Na3VO4, 1 mM β-glycerolphosphate) on ice for 30 min with vortexing every 10 min. Samples are then centrifuged at 13,000 rpm for 20 min, and supernatants are collected as total cell lysate samples. Protein concentration is determined using bicinchonic acid assay, and about 15 μg of total protein from each sample is loaded and separated on a 4-12% Tris-Glycine gel. After SDS-PAGE, proteins are transferred from the gel to a nitrocellulose membrane. The membrane is blocked in 5% BSA in PBS containing 0.1% Tween-20 (PBS-T) for 1 hour at room temperature before probing with primary antibodies for overnight at 4° C. The following antibodies are used: mouse anti-SHIP1 (1:500 dilution; Santa Cruz, Calif., USA), rabbit anti-phospho-Akt (Ser473) (1:1000 dilution; Cell Signaling Technologies, MA, USA), rabbit anti-Akt (1:1000; Cell Signaling Technologies, MA, USA), and rabbit anti-actin (1:2000; Cell Signaling Technologies, MA, USA). The membrane is then incubated with goat anti-rabbit or anti-mouse secondary antibodies (1:3000) for 1 hour at room temperature. Target proteins on the membrane are detected with ECL solution and exposed on a film.

| Compound | Molt-4 (SHIP+): inhibition of Akt phosphorylation |
| --- | --- |
| C=C1CC[C@H]2[C@H](CNC(=O)C(F)(F)F)[C@@H]([C@@]3(C)CC[C@H](O)C[C@@H]3CO)CC[C@]12C [Cpd. No. 86, 2,2,2-trifluoro-N-(((3aS,4R,5S,7aS)-5-((1R,2S,4S)-4-hydroxy-2-(hydroxymethyl)-1-methylcyclohexyl)-7a-methyl-1-methyleneoctahydro-1H-inden-4-yl)methyl)acetamide] | + |
| C=C1CC[C@H]2[C@H](CC#N)[C@@H]([C@@]3(C)CC[C@H](O)C[C@@H]3CO)CC[C@]12C [Cpd. No. 87, 2-((3aS,4R,5S,7aS)-5-((1R,2S,4S)-4-hydroxy-2-(hydroxymethyl)-1-methylcyclohexyl)-7a-methyl-1-methyleneoctahydro-1H-inden-4-yl)acetonitrile] | + |
| C=C1CC[C@H]2[C@H](CNOC)[C@@H]([C@@]3(C)CC[C@H](O)C[C@@H]3CO)CC[C@]12C [Cpd. No. 88, (1S,3S,4R)-3-(hydroxymethyl)-4-((3aS,4R,5S,7aS)-4-((methoxyamino)methyl)-7a-methyl-1-methyleneoctahydro-1H-inden-5-yl)-4-methylcyclohexanol] | + |
| C=C1CC[C@H]2[C@H](CNC#N)[C@@H]([C@@]3(C)CC[C@H](O)C[C@@H]3CO)CC[C@]12C [Cpd. No. 89, N-(((3aS,4R,5S,7aS)-5-((1R,2S,4S)-4-hydroxy-2-(hydroxymethyl)-1-methylcyclohexyl)-7a-methyl-1-methyleneoctahydro-1H-inden-4-yl)methyl)cyanamide] | + |
| C=C1CC[C@H]2[C@H](CC(N)=O)[C@@H]([C@@]3(C)CC[C@H](O)C[C@@H]3CO)CC[C@]12C [Cpd. No. 90, 2-((3aS,4R,5S,7aS)-5-((1R,2S,4S)-4-hydroxy-2-(hydroxymethyl)-1-methylcyclohexyl)-7a-methyl-1-methyleneoctahydro-1H-inden-4-yl)acetamide] | + |
| C=C1CC[C@H]2[C@H](O)[C@@H]([C@@]3(C)CC[C@H](O)C[C@@H]3CCC#N)CC[C@]12C [Cpd. No. 94, 3-((1S,2S,5S)-5-hydroxy-2-((3aR,4R,5R,7aS)-4-hydroxy-7a-methyl-1-methyleneoctahydro-1H-inden-5-yl)-2-methylcyclohexyl)propanenitrile] | + |
| C=C1CC[C@H]2[C@H](O)[C@@H]([C@@]3(C)CC[C@H](O)C[C@@H]3CCC(N)=O)CC[C@]12C [Cpd. No. 95, 3-((1S,2S,5S)-5-hydroxy-2-((3aR,4R,5R,7aS)-4-hydroxy-7a-methyl-1-methyleneoctahydro-1H-inden-5-yl)-2-methylcyclohexyl)propanamide] | + |
| C=C1CC[C@H]2[C@H](O)[C@@H]([C@@]3(C)CC[C@H](O)C[C@H]3CCC(=O)O)CC[C@]12C [Cpd. No. 97, 3-((1R,2S,5S)-5-hydroxy-2-((3aR,4R,5R,7aS)-4-hydroxy-7a-methyl-1-methyleneoctahydro-1H-inden-5-yl)-2-methylcyclohexyl)propanoic acid] | + |
| C=C1CC[C@H]2[C@H](C(=O)O)[C@@H]([C@@]3(C)CC[C@H](O)C[C@H]3CO)CC[C@]12C [Cpd. No. 98, (3aS,4R,5S,7aS)-5-((1R,2R,4S)-4-hydroxy-2-(hydroxymethyl)-1-methylcyclohexyl)-7a-methyl-1-methyleneoctahydro-1H-indene-4-carboxylic acid] | + |
